Test results published in patent US10667517B2, “2-(Het)aryl-substituted fused heterocycle derivatives as pesticides” (BAYER CROPSCIENCE AKTIENGESELLSCHSAFT, priority 2015, dated 2020).

Tests used:
Phaedon cochleariae = Phaedon cochleariae - spray test; format: in vivo; conditions: mustard beetle larvae on Chinese cabbage leaf discs, after 7 days; for efficacy / pest or weed control at 500 g/ha: application rate 500 g/ha
Procedure: Phaedon cochleariae—Spray Test
(§1) • Solvent: 78.0 parts by weight of acetone • 1.5 parts by weight of dimethylformamide • Emulsifier: alkylaryl polyglycol ether
(§2) To produce a suitable active compound preparation, 1 part by weight of active compound is dissolved with the stated parts by weight of solvent and made up with water containing an emulsifier concentration of 1000 ppm until the desired concentration is attained. To produce further test concentrations, the preparation is diluted with emulsifier-containing water.
After 7 days, the efficacy in % is determined. 100% means that all the beetle larvae have been killed; 0% means that no beetle larvae have been killed.

Spodoptera frugiperda = Spodoptera frugiperda - spray test; format: in vivo; conditions: armyworm caterpillars on maize leaf discs, after 7 days
Procedure: Spodoptera frugiperda—Spray Test
as §1, §2
Leaf discs of maize (Zea mays) are sprayed with an active compound preparation of the desired concentration and, after drying, populated with caterpillars of the armyworm (Spodoptera frugiperda).
After 7 days, the efficacy in % is determined. 100% means that all the caterpillars have been killed; 0% means that no caterpillars have been killed.

[1] = log P (neutral), HPLC on reversed-phase column (C 18), LC-MS neutral range; format: physicochemical; conditions: pH 7.8, ammonium hydrogencarbonate/acetonitrile; for log P (neutral): HPLC reversed-phase C 18, 55° C.; for chromatographic logP: reversed-phase HPLC column (C 18), pH 7.8, HPLC reversed-phase C 18, 55° C.
Procedure: Temperature: 55° C. […] Called log P (neutral) in the table.

Ctenocephalides felis [2] = assay: Ctenocephalides felis - in vitro contact tests with adult cat fleas; format: in vivo; conditions: application rate 5 μg/cm^2 (500 g/ha); adult cat fleas in coated tubes; after 48 h; dead or moribund
Procedure: Ctenocephalides felis—In Vitro Contact Tests with Adult Cat Fleas
For the coating of the test tubes, 9 mg of active compound are first dissolved in 1 ml of acetone p.a. and then diluted to the desired concentration with acetone p.a. 250 μl of the solution are distributed homogeneously on the inner walls and the base of a 25 ml test tube by turning and rocking on an orbital shaker (rocking rotation at 30 rpm for 2 h). With 900 ppm active compound solution and internal surface 44.7 cm^2, given homogeneous distribution, an area-based dose of 5 μg/cm^2 is achieved.
After the solvent has evaporated off, the tubes are populated with 5-10 adult cat fleas (Ctenocephalides felis), sealed with a perforated plastic lid and incubated in a horizontal position at room temperature and ambient humidity. After 48 h, efficacy is determined. To this end, the test tubes are stood upright and the fleas are knocked to the base of the tube. Fleas which remain motionless at the base or move in an uncoordinated manner are considered to be dead or moribund.
100% efficacy means that all the fleas were dead or moribund. 0% efficacy means that no fleas were harmed.

Ctenocephalides felis [3] = assay: Ctenocephalides felis - oral test; format: in vivo; conditions: application rate 100 ppm in citrated cattle blood; adult cat fleas; after 2 days
Procedure: Ctenocephalides felis—Oral Test • Solvent: dimethyl sulphoxide To produce a suitable active compound preparation, 10 mg of active compound are mixed with 0.5 ml of dimethyl sulphoxide. Dilution with citrated cattle blood gives the desired concentration. About 20 unfed adult cat fleas (Ctenocephalides felis) are placed into a chamber which is closed at the top and bottom with gauze. A metal cylinder whose bottom end is closed with parafilm is placed onto the chamber. The cylinder contains the blood/active compound preparation, which can be imbibed by the fleas through the parafilm membrane. After 2 days, the kill in % is determined. 100% means that all of the fleas have been killed; 0% means that none of the fleas have been killed.

Lucilia cuprina = Lucilia cuprina test; format: in vivo; conditions: application rate 100 ppm; L1 larvae in minced horsemeat; after 2 days
Procedure: Lucilia cuprina Test • Solvent: dimethyl sulphoxide To produce a suitable active compound preparation, 10 mg of active compound are mixed with 0.5 ml of dimethyl sulphoxide, and the concentrate is diluted with water to the desired concentration. About 20 L1 larvae of the Australian sheep blowfly (Lucilia cuprina) are transferred into a test vessel containing minced horsemeat and the active compound preparation of the desired concentration. After 2 days, the kill in % is determined. 100% means that all the larvae have been killed; 0% means that no larvae have been killed.

Myzus persicae = Myzus persicae - spray test; format: in vivo; conditions: all stages of green peach aphid on Chinese cabbage leaf discs, after 5-6 days
Procedure: Myzus persicae—Spray Test
• Solvent: 78 parts by weight of acetone • 1.5 parts by weight of dimethylformamide • Emulsifier: alkylaryl polyglycol ether
as §2
Discs of Chinese cabbage leaves (Brassica pekinensis) infested by all stages of the green peach aphid (Myzus persicae) are sprayed with an active compound preparation of the desired concentration.
After 5-6 days, the efficacy in % is determined. 100% means that all the aphids have been killed; 0% means that no aphids have been killed.

Musca domestica = Musca domestica test; format: in vivo; conditions: application rate 100 ppm; adult houseflies, sponge with sugar solution; after 2 days
Procedure: Musca domestica Test • Solvent: dimethyl sulphoxide To produce a suitable active compound preparation, 10 mg of active compound are mixed with 0.5 ml of dimethyl sulphoxide, and the concentrate is diluted with water to the desired concentration. Vessels containing a sponge treated with sugar solution and the active compound preparation of the desired concentration are populated with 10 adult houseflies (Musca domestica). After 2 days, the kill in % is determined. 100% means that all of the flies have been killed; 0% means that none of the flies have been killed.

[4] = log P (acidic), HPLC on reversed-phase column (C 18), LC-MS acidic range; format: physicochemical; conditions: HPLC reversed-phase C 18, 55° C., pH 2.7, 0.1% formic acid/acetonitrile; for chromatographic logP: reversed-phase HPLC column (C 18)
Description: Called log P (HCOOH) in the table.

[5] = Phaedon cochleariae, foliar, 168 h, read-out: efficacy

SMILES	log P (neutral) [1]	efficacy (Phaedon cochleariae)	efficacy (Spodoptera frugiperda; application rate 500 g/ha)	efficacy (Myzus persicae; application rate 500 g/ha)	also measured
CCS(=O)(=O)c1ccc(-n2ccc(C(F)(F)F)n2)nc1-c1cn2cnc(C(F)(F)F)cc2n1 [Example I-29]	–	100%	100%	–	–
CCS(=O)(=O)c1ccc(N)nc1-c1nc2cc(C(F)(F)F)ccc2n1C [Example I-3, 5-(Ethylsulphonyl)-6-[1-methyl-5-(trifluoromethyl)-1H-benzimidazol-2-yl]pyridin-2-amine]	–	–	–	100%	chromatographic logP [1]: 2.18; pest or weed control at 500 g/ha (Phaedon cochleariae; [5]): 100%
CCS(=O)(=O)c1ccc(NC(=O)C2CC2)nc1-c1nc2cc(C(F)(F)F)cnc2n1C [Example I-16]	2.76	100%	100%	100%	–
CCS(=O)(=O)c1ccc(-n2ccc(C(F)(F)F)n2)nc1-c1nc2cc(C(F)(F)F)cnc2n1C [Example I-13]	–	100%	100%	–	efficacy (kill) (Lucilia cuprina): 100%; efficacy (kill) (Musca domestica): 80%
CCS(=O)(=O)c1ccc(N)nc1-c1cn2cnc(C(F)(F)F)cc2n1 [Example I-31]	1.59	100%	100%	90%	–
CCS(=O)(=O)c1ccc(-n2cc(Cl)cn2)nc1-c1cn2cnc(C(F)(F)F)cc2n1 [Example I-17, 2-[6-(4-Chloro-1H-pyrazol-1-yl)-3-(ethylsulphonyl)pyridin-2-yl]-7-(trifluoromethyl)imidazo[1,2-c]pyrimidine]	–	–	100%	–	chromatographic logP [1]: 3.46; pest or weed control at 500 g/ha (Phaedon cochleariae; [5]): 100%
CCS(=O)(=O)c1ccc(-n2cc(C(F)(F)F)cn2)nc1-c1nc2cc(C(F)(F)F)ccc2n1C [Example I-1, 2-{3-(Ethylsulphonyl)-6-[4-(trifluoromethyl)-1H-pyrazol-1-yl]pyridin-2-yl}-1-methyl-5-(trifluoromethyl)-1H-benzimidazole]	–	–	100%	–	chromatographic logP [1]: 4.16; pest or weed control at 500 g/ha (Phaedon cochleariae; [5]): 100%
CCS(=O)(=O)c1ccc(NC(C)=O)nc1-c1cn2cnc(C(F)(F)F)cc2n1 [Example I-32]	1.99	100%	80%	90%	–
CCS(=O)(=O)c1ccc(NC(C)=O)nc1-c1nc2cc3c(cc2n1C)OC(F)(F)O3 [Example I-7, N-[6-(2,2-Difluoro-7-methyl-[1,3]dioxolo[4,5-f]benzimidazol-6-yl)-5-ethylsulphonyl-2-pyridyl]acetamide]	–	–	83%	–	chromatographic logP [1]: 2.42; pest or weed control at 500 g/ha (Phaedon cochleariae; [5]): 100%
CCS(=O)(=O)c1ccc(-n2cc(F)cn2)nc1-c1cn2cnc(C(F)(F)F)cc2n1 [Example I-30]	–	–	–	–	log P (acidic) [4]: 3.13
CCS(=O)(=O)c1ccc(-n2cc(C(F)(F)F)cn2)nc1-c1nc2cc(C(F)(F)F)cnc2n1C [Example I-4, 2-{3-(Ethylsulphonyl)-6-[4-(trifluoromethyl)-1H-pyrazol-1-yl]pyridin-2-yl}-3-methyl-6-(trifluoromethyl)-3H-imidazo[4,5-b]pyridine]	–	–	100%	–	chromatographic logP [1]: 4.04; pest or weed control at 100 g/ha (Phaedon cochleariae; Phaedon cochleariae, foliar, 168 h, application rate 100 g/ha, read-out: efficacy): 83%; efficacy (kill) (Lucilia cuprina): 100%; efficacy (kill) (Musca domestica): 80%
CCS(=O)(=O)c1ccc(NC(C)=O)nc1-c1nc2cc(C(F)(F)F)cnc2n1C [Example I-5, N-{5-(Ethylsulphonyl)-6-[3-methyl-6-(trifluoromethyl)-3H-imidazo[4,5-b]pyridin-2-yl]pyridin-2-yl}acetamide]	–	–	–	90%	chromatographic logP [1]: 2.3; pest or weed control at 500 g/ha (Phaedon cochleariae; [5]): 100%; efficacy (Spodoptera frugiperda; application rate 100 g/ha): 100%
Fc1ccc(F)c(-c2cn3cc(C(F)(F)F)ncc3n2)n1 [IX-6, 2-(3,6-Difluoropyridin-2-yl)-6-(trifluoromethyl)imidazo[1,2-a]pyrazine]	–	–	–	–	chromatographic logP [4]: 2.05
CCS(=O)(=O)c1ccc(NC(=O)C(C)CSC)nc1-c1nc2cc(C(F)(F)F)cnc2n1C (centres unmarked) [Example I-25]	–	100%	–	90%	–
CCS(=O)(=O)c1ccc(C(=O)NC)nc1-c1cn2cnc(C(F)(F)F)cc2n1 [Example I-38, 5-(Ethylsulphonyl)-N-methyl-6-[7-(trifluoromethyl)imidazo[1,2-c]pyrimidin-2-yl]pyridine-2-carboxamide]	–	–	–	–	chromatographic logP [4]: 1.95
CCS(=O)(=O)c1ccc(NC(=O)CSC)nc1-c1nc2cc(C(F)(F)F)cnc2n1C [Example I-20]	2.79	100%	–	90%	–

Second part, led by results:

log P (neutral) [1]	SMILES	efficacy (Phaedon cochleariae)	efficacy (Spodoptera frugiperda; application rate 500 g/ha)	efficacy (Myzus persicae; application rate 500 g/ha)	also measured
2.92	CCS(=O)(=O)c1ccc(NC(=O)C2CC2)nc1-c1nc2cc(C(F)(F)F)ccc2n1C [Example I-10]	100%	100%	–	efficacy (Ctenocephalides felis [2]): 100%; efficacy (kill) (Ctenocephalides felis [3]): 100%; efficacy (kill) (Lucilia cuprina): 95%
4.23	CC[S+]([O-])c1ccc(-n2cc(C(F)(F)F)cn2)nc1-c1nc2cc(C(F)(F)F)cnc2n1C (centres unmarked) [Example I-12]	–	100%	–	–
4.21	CCS(=O)(=O)c1ccc(-n2ccc(C(F)(F)F)n2)nc1-c1nc2cc(C(F)(F)F)ccc2n1C [Example I-9]	–	100%	–	efficacy (Myzus persicae; application rate 100 g/ha): 90%; efficacy (kill) (Lucilia cuprina): 100%
2.66	CCS(=O)(=O)c1ccc(-n2nccn2)nc1-c1nc2cc(C(F)(F)F)cnc2n1C [Example I-23]	100%	100%	90%	–
3.9	CCS(=O)(=O)c1ccc(-n2cc(Cl)cn2)nc1-c1nc2cc(C(F)(F)F)cnc2n1C [Example I-14]	100%	100%	–	efficacy (kill) (Lucilia cuprina): 100%
3.55	CCS(=O)(=O)c1ccc(-n2cc(F)cn2)nc1-c1nc2cc(C(F)(F)F)cnc2n1C [Example I-24]	100%	100%	90%	–
